Measurements: PubChem BioAssay (NCI)
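Grown in 96-well plates, cells were treated for 48 hours with each compound at five concentrations. Insufficient inhibition: endpoint recorded as highest concentration tested. Definition used: TGI = concentration required for complete inhibition of growth.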

Experiments:
Test in all cases: DTP human tumour cell line panel, 48 h
TK-10 renal = test system: TK-10 renal
MDA-N = test system: MDA-N
OVCAR-4 ovarian = test system: OVCAR-4 ovarian
CAKI-1 renal = test system: CAKI-1 renal
SK-MEL-5 melanoma = test system: SK-MEL-5 melanoma
HL-60(TB) leukemia = test system: HL-60(TB) leukemia
MALME-3M melanoma = test system: MALME-3M melanoma
A549 NSCLC = test system: A549 NSCLC
SF-268 CNS = test system: SF-268 CNS
NCI-H522 lung = test system: NCI-H522 lung
BT-549 breast = test system: BT-549 breast
SK-MEL-28 melanoma = test system: SK-MEL-28 melanoma
LOX IMVI melanoma = test system: LOX IMVI melanoma
MCF7 breast = test system: MCF7 breast
NCI/ADR-RES ovarian = test system: NCI/ADR-RES ovarian
SW-620 colon = test system: SW-620 colon
OVCAR-8 ovarian = test system: OVCAR-8 ovarian
HT29 colon = test system: HT29 colon
T-47D breast = test system: T-47D breast
UACC-257 melanoma = test system: UACC-257 melanoma
SNB-75 CNS = test system: SNB-75 CNS
SN12C renal = test system: SN12C renal
HCT-116 colon = test system: HCT-116 colon
HOP-62 NSCLC = test system: HOP-62 NSCLC
HCC-2998 colon = test system: HCC-2998 colon
DU-145 prostate = test system: DU-145 prostate
COLO 205 colon = test system: COLO 205 colon
HS 578T breast = test system: HS 578T breast
KM12 colon = test system: KM12 colon
M14 melanoma = test system: M14 melanoma
MOLT-4 leukemia = test system: MOLT-4 leukemia
U251 CNS = test system: U251 CNS
MDA-MB-435 = test system: MDA-MB-435
MDA-MB-231 breast = test system: MDA-MB-231 breast
786-0 renal = test system: 786-0 renal
UACC-62 melanoma = test system: UACC-62 melanoma
RPMI-8226 leukemia = test system: RPMI-8226 leukemia
K-562 leukemia = test system: K-562 leukemia
NCI-H23 lung = test system: NCI-H23 lung
ACHN renal = test system: ACHN renal
HOP-92 NSCLC = test system: HOP-92 NSCLC
PC-3 prostate = test system: PC-3 prostate
CCRF-CEM leukemia = test system: CCRF-CEM leukemia
IGROV1 ovarian = test system: IGROV1 ovarian
SF-295 CNS = test system: SF-295 CNS
SF-539 CNS = test system: SF-539 CNS
SK-OV-3 ovarian = test system: SK-OV-3 ovarian
SNB-19 CNS = test system: SNB-19 CNS
HCT-15 colon = test system: HCT-15 colon
SR leukemia = test system: SR leukemia
OVCAR-3 ovarian = test system: OVCAR-3 ovarian
RXF 393 renal = test system: RXF 393 renal
NCI-H226 lung = test system: NCI-H226 lung
EKVX NSCLC = test system: EKVX NSCLC
OVCAR-5 ovarian = test system: OVCAR-5 ovarian
UO-31 renal = test system: UO-31 renal
SK-MEL-2 melanoma = test system: SK-MEL-2 melanoma

`Cc1ccc(C(=O)Cc2nc3c([nH]c2=O)c(C)nn3-c2ccccc2)c(C)c1` showed a TGI (TK-10 renal) greater than 10 µM, a TGI (MDA-N) greater than 10 µM and a TGI (OVCAR-4 ovarian) of 5.19 µM. For the same compound, the TGI (CAKI-1 renal) was greater than 10 µM, the TGI (SK-MEL-5 melanoma) was greater than 10 µM and the TGI (HL-60(TB) leukemia) was greater than 10 µM. The TGI (MALME-3M melanoma) was greater than 10 µM, the TGI (A549 NSCLC) was greater than 10 µM and the TGI (SF-268 CNS) was greater than 10 µM. For the same compound, the TGI (NCI-H522 lung) was greater than 10 µM, the TGI (BT-549 breast) was greater than 10 µM and the TGI (SK-MEL-28 melanoma) was greater than 10 µM. It also gave a TGI (LOX IMVI melanoma) greater than 10 µM, a TGI (MCF7 breast) greater than 10 µM and a TGI (NCI/ADR-RES ovarian) greater than 10 µM. It also gave a TGI (SW-620 colon) greater than 10 µM, a TGI (OVCAR-8 ovarian) greater than 10 µM and a TGI (HT29 colon) greater than 10 µM. It also gave a TGI (T-47D breast) greater than 10 µM, a TGI (UACC-257 melanoma) greater than 10 µM and a TGI (SNB-75 CNS) of 3.46 µM. For the same compound, the TGI (SN12C renal) was greater than 10 µM, the TGI (HCT-116 colon) was greater than 10 µM and the TGI (HOP-62 NSCLC) was greater than 10 µM. For the same compound, the TGI (HCC-2998 colon) was greater than 10 µM, the TGI (DU-145 prostate) was greater than 10 µM and the TGI (COLO 205 colon) was greater than 10 µM. The TGI (HS 578T breast) was greater than 10 µM, the TGI (KM12 colon) was greater than 10 µM and the TGI (M14 melanoma) was greater than 10 µM. For the same compound, the TGI (MOLT-4 leukemia) was greater than 10 µM, the TGI (U251 CNS) was greater than 10 µM and the TGI (MDA-MB-435) was greater than 10 µM. It also gave a TGI (MDA-MB-231 breast) greater than 10 µM, a TGI (786-0 renal) greater than 10 µM and a TGI (UACC-62 melanoma) greater than 10 µM. For the same compound, the TGI (RPMI-8226 leukemia) was greater than 10 µM, the TGI (K-562 leukemia) was greater than 10 µM and the TGI (NCI-H23 lung) was greater than 10 µM. It also gave a TGI (ACHN renal) greater than 10 µM, a TGI (HOP-92 NSCLC) greater than 10 µM and a TGI (PC-3 prostate) greater than 10 µM. It also gave a TGI (CCRF-CEM leukemia) greater than 10 µM, a TGI (IGROV1 ovarian) greater than 10 µM and a TGI (SF-295 CNS) greater than 10 µM. The TGI (SF-539 CNS) was greater than 10 µM, the TGI (SK-OV-3 ovarian) was greater than 10 µM and the TGI (SNB-19 CNS) was greater than 10 µM. The TGI (HCT-15 colon) was greater than 10 µM, the TGI (SR leukemia) was greater than 10 µM and the TGI (OVCAR-3 ovarian) was 8.94 µM.

For `C=C1C(=O)O[C@@H]2C[C@@]3(C)CC(=O)C=C(C)[C@@H]3C[C@H]12`, the TGI (TK-10 renal) was 25.7 µM, the TGI (MDA-N) was 17.2 µM and the TGI (RXF 393 renal) was 18.2 µM. The TGI (OVCAR-4 ovarian) was 23.2 µM, the TGI (CAKI-1 renal) was 21.6 µM and the TGI (SK-MEL-5 melanoma) was 22.9 µM. For the same compound, the TGI (NCI-H226 lung) was greater than 100 µM, the TGI (HL-60(TB) leukemia) was 4.08 µM and the TGI (MALME-3M melanoma) was 21.7 µM. The TGI (A549 NSCLC) was greater than 100 µM, the TGI (SF-268 CNS) was 42.5 µM and the TGI (NCI-H522 lung) was 20.3 µM. It also gave a TGI (BT-549 breast) of 27.6 µM, a TGI (SK-MEL-28 melanoma) of 41.9 µM and a TGI (LOX IMVI melanoma) of 38.1 µM. For the same compound, the TGI (MCF7 breast) was 14.9 µM, the TGI (NCI/ADR-RES ovarian) was 40.4 µM and the TGI (SW-620 colon) was 22.6 µM. The TGI (OVCAR-8 ovarian) was 42.9 µM, the TGI (EKVX NSCLC) was 28.8 µM and the TGI (HT29 colon) was 24.6 µM. It also gave a TGI (T-47D breast) of 28.3 µM, a TGI (UACC-257 melanoma) of 41.7 µM and a TGI (SNB-75 CNS) of 39.6 µM. For the same compound, the TGI (SN12C renal) was 26.2 µM, the TGI (HCT-116 colon) was 20.2 µM and the TGI (HOP-62 NSCLC) was 34.4 µM. The TGI (OVCAR-5 ovarian) was 32.9 µM, the TGI (HCC-2998 colon) was 28.1 µM and the TGI (DU-145 prostate) was 16.1 µM. For the same compound, the TGI (COLO 205 colon) was 11.4 µM, the TGI (HS 578T breast) was 99.7 µM and the TGI (UO-31 renal) was 24.1 µM. It also gave a TGI (KM12 colon) of 37.9 µM, a TGI (M14 melanoma) of 32.7 µM and a TGI (MOLT-4 leukemia) of 21.8 µM. It also gave a TGI (SK-MEL-2 melanoma) of 29.8 µM, a TGI (U251 CNS) of 39.1 µM and a TGI (MDA-MB-435) of 30.5 µM. It also gave a TGI (MDA-MB-231 breast) of 34 µM, a TGI (786-0 renal) of 31.5 µM and a TGI (UACC-62 melanoma) of 30.4 µM. It also gave a TGI (RPMI-8226 leukemia) of 5.45 µM, a TGI (NCI-H23 lung) of 29.9 µM and a TGI (ACHN renal) of 8.69 µM. It also gave a TGI (HOP-92 NSCLC) of 55 µM, a TGI (PC-3 prostate) of 36.3 µM and a TGI (CCRF-CEM leukemia) greater than 100 µM. It also gave a TGI (IGROV1 ovarian) of 32.2 µM, a TGI (SF-295 CNS) greater than 100 µM and a TGI (SF-539 CNS) of 36.2 µM. For the same compound, the TGI (SK-OV-3 ovarian) was greater than 100 µM, the TGI (SNB-19 CNS) was 50 µM and the TGI (HCT-15 colon) was 15.2 µM. It also gave a TGI (OVCAR-3 ovarian) of 19.9 µM.
